Measured values from publication PMC8399565, “Fluorescence Cross-Correlation Spectroscopy Yields True Affinity and Binding Kinetics of Plasmodium Lactate Transport Inhibitors” (Pharmaceuticals, 2021).
Entries after “also recorded” stand apart in the source; their conditions may differ. Like-named read-outs stand apart in the source and are kept apart here.

Columns and labels:
[1] = biological target: T1, PfFNT-GFP (Plasmodium falciparum, UniProt O77389); test: Live cell confocal imaging, co-localization with PfFNT-GFP in HEK293 cells; assay type: cell-based; settings: for co-localization / membrane localization: probe after 0.05% Triton X-100 permeabilization, 0.5-5 min
T1 construct: The DNA of full-length PfFNT from Plasmodium falciparum 3D7 was cloned as a C-terminal GFP fusion; expressed in transfected cells; intact cells for imaging, LMNG-solubilized membranes or lysates for FCCS
T1 sequence (O77389 whole entry, the tested form may be a part): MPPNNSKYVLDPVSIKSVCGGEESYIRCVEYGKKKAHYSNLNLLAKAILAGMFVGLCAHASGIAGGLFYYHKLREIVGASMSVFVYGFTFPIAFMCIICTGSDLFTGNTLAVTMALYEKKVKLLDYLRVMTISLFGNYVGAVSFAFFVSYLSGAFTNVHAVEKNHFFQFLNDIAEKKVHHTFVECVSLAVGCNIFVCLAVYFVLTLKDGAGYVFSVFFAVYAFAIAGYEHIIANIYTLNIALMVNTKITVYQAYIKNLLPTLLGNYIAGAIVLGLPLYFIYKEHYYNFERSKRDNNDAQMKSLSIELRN
Description: BH296-DY647 was added at a concentration of 50 nM to cultured HEK cells stably expressing PfFNT-GFP to test for co-localization of the compound with the target at the plasma membrane by confocal imaging. […] As the cytoplasmic domain of the transporter is inaccessible for the compound, we next explored possibilities to permeabilize the plasma membrane and to retain cell viability for the time of incubation. For this, we used Triton X-100 at a final concentration of 0.05%, as described previously to allow for diffusion of compounds into the cell. […] A prolonged incubation was impeded by incipient cell disintegration and membrane blebbing. We next set out to test the specificity of binding by analyzing the interaction of labeled BH296 with its unlabeled parental compound.
(§1) The confocal laser scanning microscopy was performed on an LSM 510 confocal microscope connected to an Axiovert 200M equipped with a C-Apochromat 40×/1.2 W water immersion objective (Carl Zeiss, Germany). The red fluorophore (Dy-647) was excited using a 633 nm helium–neon laser, whereas the green fluorophore (GFP) was excited using a 488 nm argon-ion laser.

[2] = biological target: T2, PfFNT wt-GFP (Plasmodium falciparum, UniProt O77389); test: FCCS equilibrium competition binding, PfFNT wildtype; settings: for complex formed in the absence of a competitor: 70 nM tracer; for Ki: Cheng Prusoff
T2 construct: The DNA of full-length PfFNT from Plasmodium falciparum 3D7 was cloned as a C-terminal GFP fusion; expressed in transfected cells; intact cells for imaging, LMNG-solubilized membranes or lysates for FCCS
T2 sequence (O77389 whole entry, the tested form may be a part): as above
Description: To analyze the binding properties of unlabeled inhibitors BH296 and […], we determined their inhibition constants (Ki) in equilibrium competition binding assays. For this, we first incubated membrane preparations comprising 10 nM of PfFNT wildtype with labeled BH296 at a concentration of 70 nM. The interaction was then competed with increasing amounts of unlabeled parental compounds BH296 and BH267.meta within a concentration range of 10 pM and 10 µM. The concentration of formed complex between PfFNT-GFP and BH296-DY647 relates to the values observed in the saturation binding assays. […] The corresponding Ki values were then calculated employing the Cheng Prusoff equation [17].
In view of the differences in complex formation of both tracers, we were also interested to see how both unlabeled compounds perform in competition experiments with BH267.meta-DY647 as a probe. The identical PfFNT-GFP membrane preparation as in the previous experiment was incubated with BH267.meta-DY647 at a concentration of 70 nM to allow for complex formation. Different amounts of competitors BH296 and BH267.meta were added to the interaction at concentrations ranging from 10 pM to 10 µM and incubated at room temperature for 1 h to allow the interaction to reach equilibrium. […] A significant amount of 20% of complex remained intact, independent of competitor concentration and incubation time. This finding is of interest because it mirrors the behavior of BH296-DY647 in saturation binding assays, where a subfraction of target appeared incapable of binding to the more space-occupying BH296 (Figure 4d, Table 2).
FCCS measurements were conducted in 384-well glass-bottom plates (cat. no PS96B-G175, SWISSCI, Switzerland) using an Insight plate reader (Evotec Technologies, Germany) fitted with a U-Apo300 40x water immersion lens, NA 1.15 (Olympus, Japan). The 488 nm laser line of an argon-ion laser and the light of a 633 nm helium–neon laser were used for excitation. Fluorescence fluctuations were recorded for 8 s with 12 repetitions and analyzed afterward using FCS+plus Analyze 1.1P (Evotec technologies, Version 1.2.5g). FCCS analysis was carried out as described previously. Briefly, for measuring the dissociation constant (KD), a titration series of 12 dilutions was prepared, where the concentration of the lysates obtained from HEK cells expressing GFP-fusions of PfFNT WT and G107S was kept constant, and the concentration of the labeled binding partner (BH296-DY647 and BH267.meta-DY647, respectively) was varied. The IC50 values were calculated by plotting the concentration from the dual labeled complex against the concentration of the competitor titrated over a concentration range from 10 µM to 10 pM. Samples were incubated for 1 h at room temperature prior to FCCS measurements to allow the formation of drug target complexes. From the resulting IC50 values, the Ki values were obtained by application of the Cheng Prusoff equation [17]. To assess the rate constants, time-resolved measurements were carried out at different concentrations of the labeled ligand. […] All KD and IC50 values, as well as kinetic parameters, were determined from three independently repeated experiments. The figures show one representative measurement; however, the calculated KD, Ki, kon and koff values are presented as an average of the three measurements ± SD. Error bars denote ± SEM.

[3] = biological target: T3, PfFNT G107S-GFP (Plasmodium falciparum, UniProt O77389, G107S); test: Live cell confocal imaging, co-localization with PfFNT G107S-GFP in HEK293 cells; assay type: cell-based; settings: for co-localization / membrane localization: 50 nM probe, 0.05% Triton X-100; for competition of BH267.meta-DY647 membrane localization by unlabeled compound: 100 µM unlabeled compound
T3 construct: The DNA of full-length PfFNT from Plasmodium falciparum 3D7 was cloned as a C-terminal GFP fusion; expressed in transfected cells; intact cells for imaging, LMNG-solubilized membranes for FCCS
T3 sequence (O77389 whole entry G107S, the tested form may be a part): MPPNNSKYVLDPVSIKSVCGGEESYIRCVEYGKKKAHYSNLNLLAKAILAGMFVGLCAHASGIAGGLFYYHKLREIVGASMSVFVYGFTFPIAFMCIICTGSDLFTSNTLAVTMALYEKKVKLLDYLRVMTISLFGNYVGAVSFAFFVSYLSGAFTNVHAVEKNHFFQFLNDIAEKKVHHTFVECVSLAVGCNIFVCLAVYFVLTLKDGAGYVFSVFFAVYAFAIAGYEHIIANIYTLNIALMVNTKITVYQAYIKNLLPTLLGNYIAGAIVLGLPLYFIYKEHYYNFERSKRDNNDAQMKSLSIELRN
Source text: A PfFNT G107S mutant generated by sublethal dosing of BH296 in vitro parasite cultures has gained attention as it confers resistance against BH296, but the introduction of a scaffold nitrogen atom (BH267.meta; Figure 1) restored the effectiveness of the inhibitor [11]. The G107S mutation site is located at the cytoplasmic entrance of PfFNT and narrows the transport path precluding the binding of BH296 via sterical hinderance of the phenyl moiety of the compound. Exchange of the carbon atom in the meta-position of the aromatic ring of BH296 for a nitrogen atom introduced a hydrogen bond acceptor site for the serine hydroxyl of the resistance mutation and restored binding to the mutant PfFNT G107S. We analyzed the interaction of BH267.meta by cellular imaging. For this, we generated labeled BH267.meta-DY647 (Figure 1), expressed PfFNT G107S in HEK cells, and incubated the cells with BH296-DY647 or BH 267.meta-DY647 after treatment with 0.05% Triton X-100.
Whether these differences in signal intensity can be attributed to different affinities, to expression levels of the target protein, or to the cellular localization cannot be concluded from imaging-based experiments but requires biophysical analytical methods. However, the observation confirms previous findings that show the activity of BH267.meta on PfFNT G107S.
as §1

SMILES	co-localization / membrane localization [1]	complex formed in the absence of a competitor ([2]; 10 nM PfFNT-GFP)	co-localization / membrane localization [3]	Ki ([2]; fluorescent probe BH267.meta-DY647 70 nM, 1 h room temperature, read-out: Ki Competitor (converted))	Ki ([2]; fluorescent probe BH296-DY647 70 nM, 10 nM PfFNT-GFP, read-out: Ki Competitor (converted))	competition of BH267.meta-DY647 membrane localization by unlabeled compound [3]	competition of labeled tracer binding by unlabeled compound ([1]; preincubation with 100 µM unlabeled compound, tracer BH296-DY647)	Ki ([2]; Ki Competitor, fluorescent probe BH267.meta-DY647 70 nM, 1 h room temperature)	Ki ([2]; Ki Competitor, fluorescent probe BH296-DY647 70 nM, 10 nM PfFNT-GFP)	complex remaining intact after competition ([2]; tracer BH267.meta-DY647, independent of competitor concentration and incubation time)	co-localization / binding at plasma membrane ([1]; 50 nM probe, absence of Triton X-100, up to 1 h)
CCN1/C(=C/C=C/C=C/C2=[N+](CC)c3ccc(S(=O)(=O)O)cc3C2(C)CCCC(=O)NCCOCCOCCOCCOCCC(=O)NCCCOc2ccc(C(=O)/C=C(\O)C(F)(F)C(F)(F)F)cn2)C(C)(C)c2cc(S(=O)(=O)[O-])ccc21 (stereo not shown) [BH267.meta-DY647]	localizes with PfFNT wildtype	3 nM	co-localizes; also recorded: clear membrane stain	–	–	–	–	–	–	–	–
O=C(/C=C(\O)C(F)(F)C(F)(F)F)c1cccnc1 [BH267.meta]	binds efficiently	–	–	56 nM	66 ± 6 nM	prevents membrane localization; also recorded: could be competed	–	–	–	–	–
O=C(C=C(O)C(F)(F)C(F)(F)F)c1ccc(O)cc1 [BH296, 4,4,5,5,5-pentafluoro-3-hydroxy-1-(4-hydroxyphenyl)pent-2-en-1-one]	–	–	did not localize to membranes	–	–	cannot compete	prevented binding of the labeled tracer; also recorded: completely abrogated binding	47 nM	48 ± 2 nM	20%	–
CCN1/C(=C/C=C/C=C/C2=[N+](CC)c3ccc(S(=O)(=O)O)cc3C2(C)CCCC(=O)NCCOCCOCCOCCOCCC(=O)NCCCOc2ccc(C(=O)/C=C(\O)C(F)(F)C(F)(F)F)cc2)C(C)(C)c2cc(S(=O)(=O)[O-])ccc21 (stereo not shown) [BH296-DY647]	clearly visible	1.5 nM	–	–	–	–	–	–	–	–	No co-localization; also recorded: could not be observed
